Measured values taken from article PMC4916434, “Evaluation of the inhibition potential of plumbagin against cytochrome P450 using LC-MS/MS and cocktail approach” (Scientific Reports, 2016).

Experiments:
Type in all cases: in vitro ADME
CYP3A4 = molecular target: T1, CYP3A4 (Homo sapiens, UniProt P08684); experiment: biochemical
T1 construct: consisting of pooled HLMs (0.5 mg/ml) or RLMs (1 mg/ml) and an NADPH-regenerating system; tissue Corning Gentest Corporation; host or cells: pooled human liver microsomes (n = 20)
Method: (§1) Microsomal incubation was carried out at 37 °C in a mixture of 200 μl in 0.05 M Tris/HCl buffer (pH 7.4) consisting of pooled HLMs (0.5 mg/ml) or RLMs (1 mg/ml) and an NADPH-regenerating system including MgCl2 (5 mM), G6P (10 mM), G6PDH (0.4 U/ml) and NADP (1 mM). Substrates were added into the incubation mixture and obtained the final concentrations (10 μM phenacetin for CYP1A2, 20 μM bupropion for CYP2B1/6, 20 μM tolbutamide for CYP2C9/11, 5 μM dextromethorphan for CYP2D1/6, 20 μM chlorzoxazone for CYP2E1 and 10 μM midazolam for CYP3A2/4), which were close to Km respectively. The proportion of organic solvent was not higher than 1% (v/v) in the incubation mixture. After pre-incubation for 5 min, the reaction was initiated by addition of NADP. Incubations were performed for 20 min, stopped by adding 200 μl ice-cold acetonitrile. And then 20 μl internal standard solution was added (3-acetamidophenol 2 μg/ml, chlorpropamide 2 μg/ml and mebendazole 2 μg/ml). The solution was mixed thoroughly for 3 min and centrifuged for 10 min at 16,000 × g at 4 °C. The supernatant (60 μl) was transferred to autosampler vials, and 2 μl was injected into LC-MS/MS system.
(§2) The IC50 (concentration of inhibitor to cause 50% inhibition of original enzyme activity) values were determined with the same incubation condition above. The specific concentrations of plumbagin were ranged from 0.1 μM to 50 μM. The IC50 values were calculated by plotting relative activities over the logarithm of plumbagin concentrations using GraphPad Prism 5.0 (GraphPad software Inc., CA, USA).
(§3) Cocktail probe substrates were then added and incubated for 20 min. Reactions were stopped with 200 μl ice-cold acetonitrile. The samples were treated according to the microsomal incubation method and then injected into LC-MS/MS for analysis.
(§4) Kinetic studies were performed for determining the types of inhibition on CYP by plumbagin. Pooled HLMs (0.5 mg/ml) or RLMs (1 mg/ml) with plumbagin (1 μM, 2 μM, 5 μM and 10 μM) were incubated in 0.05 M Tris/HCl buffer (pH 7.4) for 20 min at 37 °C. A series of concentrations for cocktail probe substrates were used: 2.5–20 μM phenacetin for CYP1A2; 5–40 μM bupropion for CYP2B1/6; 5–40 μM tolbutamide for CYP2C9/11; 1.25–10 μM dextromethorphan for CYP2D1/6; 5–40 μM chlorzoxazone for CYP2E1; 2.5–80 μM midazolam for CYP3A2; and 0.625–5 μM midazolam for CYP3A4. Enzyme kinetics as well as statistical analysis were performed using GraphPad Prism 5.0.
(§5) All data were presented as mean ± SD. The IC50 values were fitted by non-linear regression analysis using GraphPad Prism 5.0. The kinetic parameters were obtained by fitting velocity data to kinetic models (Michaelis-Menten) using GraphPad Prism 5.0. The Lineweaver-Burk Plot (the reciprocal of reaction velocities versus the reciprocal of substrates concentrations) was used to determine the quality of fit to a specific inhibition model. The inhibition constant (Ki) was obtained by a secondary plot using the slopes of the primary Lineweaver-Burk Plot (Km/Vmax versus inhibitor concentrations). αKi was obtained from a secondary plot using the y-intercepts of the Lineweaver-Burk plot (1/Vmax versus inhibitor concentrations). All results were analyzed in quadruplicate. One-way analysis of variance was used to estimate the significance of differences. There was statistical significance between control and test groups if p < 0.05.

CYP2B6 = molecular target: T2, CYP2B6 (Homo sapiens, UniProt P20813); experiment: biochemical
T2 construct: consisting of pooled HLMs (0.5 mg/ml) or RLMs (1 mg/ml) and an NADPH-regenerating system; tissue Corning Gentest Corporation; host or cells: pooled human liver microsomes (n = 20)
T2 sequence (P20813 1-491): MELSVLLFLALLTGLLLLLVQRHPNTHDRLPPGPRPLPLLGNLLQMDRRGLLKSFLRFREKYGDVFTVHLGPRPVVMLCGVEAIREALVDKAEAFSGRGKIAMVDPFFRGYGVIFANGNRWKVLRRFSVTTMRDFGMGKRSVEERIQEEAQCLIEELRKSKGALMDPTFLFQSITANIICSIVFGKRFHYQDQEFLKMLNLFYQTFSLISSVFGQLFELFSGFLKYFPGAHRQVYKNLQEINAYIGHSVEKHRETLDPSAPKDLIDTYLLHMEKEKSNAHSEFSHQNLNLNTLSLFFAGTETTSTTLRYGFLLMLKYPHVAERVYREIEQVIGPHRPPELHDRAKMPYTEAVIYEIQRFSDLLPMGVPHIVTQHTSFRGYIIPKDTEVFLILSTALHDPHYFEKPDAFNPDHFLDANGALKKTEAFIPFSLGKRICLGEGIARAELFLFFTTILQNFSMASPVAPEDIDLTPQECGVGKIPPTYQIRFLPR
Method: as §1, §2, §3, §4, §5

CYP1A2 = molecular target: T3, CYP1A2 (Homo sapiens, UniProt P05177); experiment: biochemical
T3 construct: consisting of pooled HLMs (0.5 mg/ml) or RLMs (1 mg/ml) and an NADPH-regenerating system; tissue Corning Gentest Corporation; host or cells: pooled human liver microsomes (n = 20)
T3 sequence (P05177 1-516): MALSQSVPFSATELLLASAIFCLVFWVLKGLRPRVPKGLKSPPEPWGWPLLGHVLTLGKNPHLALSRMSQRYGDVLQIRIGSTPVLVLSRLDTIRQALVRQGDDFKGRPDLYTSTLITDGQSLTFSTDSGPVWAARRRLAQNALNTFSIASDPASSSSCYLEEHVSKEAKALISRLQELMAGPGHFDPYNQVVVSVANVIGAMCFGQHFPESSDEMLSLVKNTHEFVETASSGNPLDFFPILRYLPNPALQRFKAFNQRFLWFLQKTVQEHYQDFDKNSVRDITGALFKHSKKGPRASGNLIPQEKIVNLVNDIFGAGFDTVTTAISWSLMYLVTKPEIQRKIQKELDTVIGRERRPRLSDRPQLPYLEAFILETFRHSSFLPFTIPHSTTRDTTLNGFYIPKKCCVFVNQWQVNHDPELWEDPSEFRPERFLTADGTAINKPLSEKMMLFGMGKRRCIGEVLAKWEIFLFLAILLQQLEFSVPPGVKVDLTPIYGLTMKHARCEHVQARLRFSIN
Method: as §1, §2, §3, §4, §5

CYP2C9 = molecular target: T4, CYP2C9 (Homo sapiens, UniProt P11712); experiment: CYP2C9 inhibition (tolbutamide methyl-hydroxylation) in pooled human liver microsomes, cocktail LC-MS/MS
T4 construct: consisting of pooled HLMs (0.5 mg/ml) or RLMs (1 mg/ml) and an NADPH-regenerating system; tissue Corning Gentest Corporation; host or cells: pooled human liver microsomes (n = 20)
Method: as §1, §2, §3, §4, §5

T4 sequence (P11712 whole entry): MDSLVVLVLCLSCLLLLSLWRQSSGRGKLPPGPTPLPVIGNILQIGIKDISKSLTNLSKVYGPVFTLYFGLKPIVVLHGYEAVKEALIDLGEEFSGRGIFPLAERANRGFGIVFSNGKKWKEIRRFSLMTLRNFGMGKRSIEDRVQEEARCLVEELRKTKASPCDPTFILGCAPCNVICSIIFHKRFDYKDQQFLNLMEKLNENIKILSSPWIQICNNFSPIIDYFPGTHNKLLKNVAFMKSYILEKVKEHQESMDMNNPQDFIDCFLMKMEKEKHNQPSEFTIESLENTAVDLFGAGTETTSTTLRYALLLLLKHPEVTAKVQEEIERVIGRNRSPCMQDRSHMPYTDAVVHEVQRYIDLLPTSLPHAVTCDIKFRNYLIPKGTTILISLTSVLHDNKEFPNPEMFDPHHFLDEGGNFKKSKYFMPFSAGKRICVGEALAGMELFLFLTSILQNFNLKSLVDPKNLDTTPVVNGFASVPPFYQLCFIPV
T1 sequence (P08684 whole entry): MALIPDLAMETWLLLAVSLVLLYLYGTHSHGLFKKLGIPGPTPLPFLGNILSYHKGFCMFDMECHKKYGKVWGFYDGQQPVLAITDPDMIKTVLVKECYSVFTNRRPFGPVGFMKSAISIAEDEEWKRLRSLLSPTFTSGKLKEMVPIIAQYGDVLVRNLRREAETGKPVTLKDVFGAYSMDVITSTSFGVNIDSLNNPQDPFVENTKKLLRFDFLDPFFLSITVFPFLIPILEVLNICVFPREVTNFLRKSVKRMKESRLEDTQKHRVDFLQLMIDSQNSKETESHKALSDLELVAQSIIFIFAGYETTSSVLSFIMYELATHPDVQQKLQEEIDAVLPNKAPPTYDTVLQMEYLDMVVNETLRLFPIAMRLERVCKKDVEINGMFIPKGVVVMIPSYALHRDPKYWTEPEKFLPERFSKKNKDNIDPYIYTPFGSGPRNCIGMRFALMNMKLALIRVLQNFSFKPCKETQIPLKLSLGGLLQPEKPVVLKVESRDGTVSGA

Question: What does the source list for `CC1=CC(=O)c2c(O)cccc2C1=O` [plumbagin, 5-hydroxy-2-methyl-1,4-naphthoquinone]?
Answer: IC50 (CYP3A4): 6.45 µM; Ki (CYP3A4): 0.88 µM; Type of inhibition (CYP3A4): mixed-type; α (CYP3A4; human, 20 min, pH 7.4): 1.54; αKi (CYP3A4; human, 20 min, pH 7.4): 0.57 µM; IC50 (CYP2B6): 13.1 µM; Ki (CYP2B6): 1.62 µM; Type of inhibition (CYP2B6): mixed-type; α (CYP2B6; human, 20 min, pH 7.4): 0.55; αKi (CYP2B6; human, 20 min, pH 7.4): 2.92 µM; IC50 (CYP1A2): 7.49 µM; Ki (CYP1A2): 0.15 µM; Type of inhibition (CYP1A2): non-competitive; α (CYP1A2; human, 20 min, pH 7.4): 0.94; αKi (CYP1A2; human, 20 min, pH 7.4): 0.16 µM; IC50 (CYP2C9): 10.9 µM; Ki (CYP2C9): 2.16 µM; Type of inhibition (CYP2C9): mixed-type; αKi (CYP2C9; HLMs, secondary plot of y-intercepts, tolbutamide 5-40 μM): 1.46 µM; α (CYP2C9; human, 20 min, pH 7.4): 1.48
